Results published in EP4745138A1, “THIO-GLUTARIMIDO ISOINDOLINONE DERIVATIVE, BIFUNCTIONAL PROTEIN DEGRADER CONTAINING SAME, AND USES THEREOF” (Gluetacs Therapeutics (Shanghai) Co., Ltd., priority 2023, dated 2025).

Target: T1, human Cereblon WT GST-tagged protein (Homo sapiens, UniProt Q96SW2)
T1 construct: purchased CISBIO 64BDCRBNPEH
Experiment: CRBN-binding affinity, HTRF (CEREBLON BINDING kit)
Settings: for inhibition at 0.5 µM: read-out: Inhibition Rate at 0.5 µM (%); for inhibition at 2 µM: read-out: Inhibition Rate at 2 µM (%)
Text: The CEREBLON BINDING kits (specification: 10,000 tests; product number: Catalog # 64BDCRBNPEH; CISBIO company) was used to determine the CRBN binding ability of the compounds to be tested through a HTRF method (homogeneous time-resolved fluorescence). The specific methods are as follows: • 1. […] Specifically, diluent #9 (1X) solution was used as the diluent, and multiple concentration gradients were set. […] Into the 96-well plate, the diluted test compounds and corresponding detection reagents were added, resulting in final test compound concentrations of 2 µM and 0.5 µM, respectively. […] Then, 2.5 µL of human Cereblon WT GST-tagged protein solution was added to each well. Finally, 5 µL of the thoroughly mixed Thalidomide-Re reagent and GST Eu antibody working solution were added to each of the aforementioned wells. […] The blank control wells were sequentially added with 2.5 µL of diluent #9 (1X) solution, 2.5 µL of PROTAC binding buffer, and 5 µL of thoroughly mixed Thalidomide-Re reagent and GST Eu antibody working solution. • 4.

T1 sequence (Q96SW2 whole entry): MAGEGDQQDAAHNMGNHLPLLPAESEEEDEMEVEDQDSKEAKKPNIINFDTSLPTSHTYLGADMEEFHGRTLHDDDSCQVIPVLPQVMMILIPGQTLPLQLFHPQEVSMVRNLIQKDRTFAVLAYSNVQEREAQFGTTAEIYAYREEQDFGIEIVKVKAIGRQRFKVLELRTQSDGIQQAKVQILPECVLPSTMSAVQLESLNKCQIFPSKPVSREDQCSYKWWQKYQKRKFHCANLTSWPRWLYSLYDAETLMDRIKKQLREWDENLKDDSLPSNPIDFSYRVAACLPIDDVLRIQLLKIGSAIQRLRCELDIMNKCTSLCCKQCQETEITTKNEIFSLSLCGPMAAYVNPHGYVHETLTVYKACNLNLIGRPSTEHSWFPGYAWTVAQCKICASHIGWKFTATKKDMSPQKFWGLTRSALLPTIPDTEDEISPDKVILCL

Structure (SMILES) | inhibition at 0.5 µM [%] | inhibition at 2 µM [%]
CCCc1cc(C)[nH]c(=O)c1CNC(=O)c1cc(-c2ccc(N3CCN(Cc4ccc5c(c4)CN(C4CCC(=O)NC4=O)C5=S)CC3)nc2)cc2c1cnn2C(C)C (stereo not drawn) [GT-08885, 6-(6-(4-((2-(2,6-dioxopiperidin-3-yl)-1-thioxoisoindolin-5-yl)methyl)piperazin-1-yl)pyridin-3-yl)-1-isopropyl-N-((6-methyl-2-oxo-4-propyl-1,2-dihydropyridin-3-yl)methyl)-1H-indazole-4-carboxamide] | 40 to 53 | 60 to 80
COc1cc(N2CCC(N3CCN(C)CC3)CC2)ccc1Nc1ncc(Cl)c(Nc2ccccc2P(C)(C)=O)n1 [Brigatinib, reference compound] | 0 to 10 | 10 to 20
Cn1c2ccncc2c2ccc(-c3cnc(N4CCN(Cc5ccc6c(c5)CN(C5CCC(=O)NC5=O)C6=S)CC4)c(Cl)c3)cc21 (stereo not drawn) [GT-08978, 3-(5-((4-(3-chloro-5-(5-methyl-5H-pyrido[4,3-b]indol-7-yl)pyridin-2-yl)piperazin-1-yl)methyl)-1-thioxoisoindolin-2-yl)piperidine-2,6-dione] | 60 to 80 | 60 to 80
CC1(C)CCC(c2ccc(Cl)cc2)=C(CN2CCN(c3ccc(C(=O)NS(=O)(=O)c4ccc(N[C@H](CCN5CC6CCC(C5)N6Cc5ccc6c(c5)CN(C5CCC(=O)NC5=O)C6=S)CSc5ccccc5)c(S(=O)(=O)C(F)(F)F)c4)cc3)CC2)C1 (stereo partly drawn) [GT-09416, 4-(4-((4'-chloro-4,4-dimethyl-3,4,5,6-tetrahydro-[1,1'-biphenyl]-2-yl)methyl)piperazin-1-yl)-N-((4-(((2R)-4-(8-((2-(2,6-dioxopiperidin-3-yl)-1-thioxoisoindolin-5-yl)methyl)-3,8-diazabicyclo[3.2.1]octan-3-yl)-1-(phenylthio)butan-2-yl)amino)-3-((trifluoromethyl)sulfonyl)phenyl)sulfonyl)benzamide] | 80 to 100 | 80 to 100
Nc1nnc(-c2cc(F)ccc2O)cc1N1CC2CCC(C1)N2Cc1ccc2c(c1)C(=S)N(C1CCC(=O)NC1=O)C2 (stereo not drawn) [GT-08791, 3-(6-((3-(3-amino-6-(5-fluoro-2-hydroxyphenyl)pyridazin-4-yl)-3,8-diazabicyclo[3.2.1]octan-8-yl)methyl)-1-thioxoisoindolin-2-yl)piperidine-2,6-dione] | 40 to 53 | 80 to 100
Nc1nnc(-c2cc(F)ccc2O)cc1N1CC2CCC(C1)N2Cc1cccc2c1CN(C1CCC(=O)NC1=O)C2=S (stereo not drawn) [GT-08790, 3-(4-((3-(3-amino-6-(5-fluoro-2-hydroxyphenyl)pyridazin-4-yl)-3,8-diazabicyclo[3.2.1]octan-8-yl)methyl)-1-thioxoisoindolin-2-yl)piperidine-2,6-dione] | 60 to 80 | 80 to 100
O=C1CCC(N2Cc3c(CN4CCN(c5ncc(C(=O)Nc6ccc(OC(F)(F)Cl)cc6)cc5-c5cc[nH]n5)CC4)cccc3C2=S)C(=O)N1 (stereo not drawn) [GT-08775, N-(4-(chlorodifluoromethoxy)phenyl)-6-(4-((2-(2,6-dioxopiperidin-3-yl)-1-thioxoisoindolin-4-yl)methyl)piperazin-1-yl)-5-(1H-pyrazol-3-yl)nicotinamide] | 30 to 40 | 60 to 80
Nc1ncnc2c1c(-c1ccc(Oc3ccccc3)cc1)nn2C1CCN(Cc2cccc3c2CN(C2CCC(=O)NC2=O)C3=S)CC1 (stereo not drawn) [GT-05074, 3-(4-((4-(4-amino-3-(4-phenoxyphenyl)-1H-pyrazolo[3,4-d]pyrimidin-1-yl)piperidin-1-yl)methyl)-1-thioxoisoindolin-2-yl)piperidine-2,6-dione] | 40 to 53 | 60 to 80
O=C1CCC(N2Cc3cc(CN4CCN(c5ncc(C(=O)Nc6ccc(OC(F)(F)Cl)cc6)cc5-c5cc[nH]n5)CC4)ccc3C2=S)C(=O)N1 (stereo not drawn) [GT-08769, N-(4-(chlorodifluoromethoxy)phenyl)-6-(4-((2-(2,6-dioxopiperidin-3-yl)-1-thioxoisoindolin-5-yl)methyl)piperazin-1-yl)-5-(1H-pyrazol-3-yl)nicotinamide] | 53 to 60 | 80 to 100
COC1CCN(c2nccc(Nc3cc4c(cn3)c(N3CCN(Cc5cccc6c5CN(C5CCC(=O)NC5=O)C6=S)CC3)nn4C(C)C)n2)CC1 (stereo not drawn) [GT-08759, 3-(4-((4-(1-isopropyl-6-((2-(4-methoxypiperidin-1-yl)pyrimidin-4-yl)amino)-1H-pyrazolo[4,3-c]pyridin-3-yl)piperazin-1-yl)methyl)-1-thioxoisoindolin-2-yl)piperidine-2,6-dione] | 30 to 40 | 60 to 80

Further lines, results first:

inhibition at 0.5 µM [%] | inhibition at 2 µM [%] | Structure (SMILES)
53 to 60 | 80 to 100 | O=C1CCC(N2Cc3cc(CN4CCC(NC(=O)c5n[nH]cc5NC(=O)c5c(Cl)cccc5Cl)CC4)ccc3C2=S)C(=O)N1 (stereo not drawn) [GT-09434, 4-(2,6-dichlorobenzamido)-N-(1-((2-(2,6-dioxopiperidin-3-yl)-1-thioxoisoindolin-5-yl)methyl)piperidin-4-yl)-1H-pyrazole-3-carboxamide]
40 to 53 | 60 to 80 | CN(c1nccnc1CNc1nc(Nc2ccc(N3CCN(Cc4ccc5c(c4)C(=S)N(C4CCC(=O)NC4=O)C5)CC3)cc2)ncc1C(F)(F)F)S(C)(=O)=O (stereo not drawn) [GT-09437, N-(3-(((2-((4-(4-((2-(2,6-dioxopiperidin-3-yl)-3-thioxoisoindolin-5-yl)methyl)piperazin-1-yl)phenyl)amino)-5-(trifluoromethyl)pyrimidin-4-yl)amino)methyl)pyrazin-2-yl)-N-methylmethanesulfonamide]
60 to 80 | 80 to 100 | Cn1c2ccncc2c2ccc(-c3ccc(N4CCN(Cc5ccc6c(c5)CN(C5CCC(=O)NC5=O)C6=S)CC4)nc3)cc21 (stereo not drawn) [GT-08982, 3-(5-((4-(5-(5-methyl-5H-pyrido[4,3-b]indol-7-yl)pyridin-2-yl)piperazin-1-yl)methyl)-1-thioxoisoindolin-2-yl)piperidine-2,6-dione]
0 to 10 | 0 to 10 | Cc1cc(-c2nc(C(=O)Nc3cc4oc(N5CCOCC5)nc4nc3N3CC[C@@H](O)C3)co2)ccn1 [emavusertib, Emavusertib, reference compound]
40 to 53 | 60 to 80 | Cc1cc(-c2ccc3c4cnccc4n(C)c3c2)cnc1N1CCN(Cc2ccc3c(c2)CN(C2CCC(=O)NC2=O)C3=S)CC1 (stereo not drawn) [GT-08980, 3-(5-((4-(3-methyl-5-(5-methyl-5H-pyrido[4,3-b]indol-7-yl)pyridin-2-yl)piperazin-1-yl)methyl)-1-thioxoisoindolin-2-yl)piperidine-2,6-dione]
60 to 80 | 80 to 100 | CN(C)C(=O)c1cc2cnc(Nc3ccc(N4CCN(Cc5ccc6c(c5)C(=S)N(C5CCC(=O)NC5=O)C6)CC4)cn3)nc2n1C1CCCC1 (stereo not drawn) [GT-09427, 7-cyclopentyl-2-((5-(4-((2-(2,6-dioxopiperidin-3-yl)-3-thioxoisoindolin-5-yl)methyl)piperazin-1-yl)pyridin-2-yl)amino)-N,N-dimethyl-7H-pyrrolo[2,3-d]pyrimidine-6-carboxamide]
53 to 60 | 60 to 80 | O=C1CCC(N2Cc3cc(CN4CCN(c5ccc(-c6cc(F)c7c(c6)C(=O)N(C(C(=O)Nc6nccs6)c6ncn8c6CCC8)C7)cc5)CC4)ccc3C2=S)C(=O)N1 (stereo not drawn) [GT-09423, 2-(6,7-dihydro-5H-pyrrolo[1,2-c]imidazol-1-yl)-2-(6-(4-(4-((2-(2,6-dioxopiperidin-3-yl)-1-thioxoisoindolin-5-yl)methyl)piperazin-1-yl)phenyl)-4-fluoro-1-oxoisoindolin-2-yl)-N-(thiazol-2-yl)acetamide]
40 to 53 | 60 to 80 | CC(=O)c1c(C)c2cnc(Nc3ccc(N4CCN(Cc5ccc6c(c5)C(=S)N(C5CCC(=O)NC5=O)C6)CC4)cn3)nc2n(C2CCCC2)c1=O (stereo not drawn) [GT-09428, 3-(6-((4-(6-((6-acetyl-8-cyclopentyl-5-methyl-7-oxo-7,8-dihydropyrido[2,3-d]pyrimidin-2-yl)amino)pyridin-3-yl)piperazin-1-yl)methyl)-1-thioxoisoindolin-2-yl)piperidine-2,6-dione]
